Source: ChEMBL document CHEMBL5131478, “3,5-Bis(trifluoromethyl)phenylsulfonamides, a novel pancreatic cancer active lead. Investigation of the terminal aromatic moiety” (Bioorg Med Chem Lett, 2022)

Columns and labels:
PANC-1 = assay: Growth inhibition of human PANC-1 cells incubated for 72 hrs by MTT assay; assay type: functional
MIA PaCa-2 = assay: Growth inhibition of human MIA PaCa-2 cells incubated for 72 hrs by MTT assay; assay type: functional
[1] = Growth inhibition of human MCF-10A cells incubated for 72 hrs by MTT assay; assay type: toxicity, cell-based
MCF7 = assay: Growth inhibition of human MCF7 cells incubated for 72 hrs by MTT assay; assay type: functional
A2780 = assay: Growth inhibition of human A2780 cells incubated for 72 hrs by MTT assay; assay type: functional
HPAC = assay: Growth inhibition of human HPAC cells incubated for 72 hrs by MTT assay; assay type: functional
BXPC-3 = assay: Growth inhibition of human BXPC-3 cells incubated for 72 hrs by MTT assay; assay type: functional
BE(2)-C = assay: Growth inhibition of human BE2C cells incubated for 72 hrs by MTT assay; assay type: functional
Capan-2 = assay: Growth inhibition of human Capan-2 cells incubated for 72 hrs by MTT assay; assay type: functional
ASPC1 = assay: Growth inhibition of human ASPC1 cells incubated for 72 hrs by MTT assay; assay type: functional
HT-29 = assay: Growth inhibition of human HT-29 cells incubated for 72 hrs by MTT assay; assay type: functional
DU-145 = assay: Growth inhibition of human DU-145 cells incubated for 72 hrs by MTT assay; assay type: functional
U-87 MG = assay: Growth inhibition of human U87 cells incubated for 72 hrs by MTT assay; assay type: functional, U-87MG ATCC
NCI-H460 = assay: Growth inhibition of human NCI-H460 cells incubated for 72 hrs by MTT assay; assay type: functional
A-431 = assay: Growth inhibition of human A-431 cells incubated for 72 hrs by MTT assay; assay type: functional
[2] = Growth inhibition of human SJG2 cells incubated for 72 hrs by MTT assay; assay type: functional; settings: SJ-G2

Structure (SMILES)	GI50 (PANC-1) [µM]	GI50 (MIA PaCa-2) [µM]	GI50 (MCF7) [µM]	GI50 (A2780) [µM]	GI50 (BXPC-3) [µM]	GI50 (ASPC1) [µM]	GI50 (HT-29) [µM]	GI50 (DU-145) [µM]	GI50 (U-87 MG) [µM]	GI50 (NCI-H460) [µM]	GI50 (A-431) [µM]	GI50 at 72 h [1] [µM]	GI50 (HPAC) [µM]	GI50 (BE(2)-C) [µM]	GI50 (Capan-2) [µM]	GI50 [2] [µM]
O=S(=O)(NCCCNCc1ccccc1)c1cc(C(F)(F)F)cc(C(F)(F)F)c1	16	11	3	4.9	13	13	15	–	–	–	–	13	3.2	12	14	–
O=[N+]([O-])c1ccc(S(=O)(=O)NCCCCCCNCc2ccc(Br)cc2)cc1	–	9.8	–	–	–	–	–	–	–	–	–	–	–	–	–	–
O=S(=O)(NCCCCCCNCc1ccc(Br)cc1)c1ccc2ccsc2c1	–	6	–	–	–	–	–	–	–	–	–	–	–	–	–	–
CN(CCCNS(=O)(=O)c1cc(C(F)(F)F)cc(C(F)(F)F)c1)Cc1ccccc1	> 50	33	16	28	39	51	> 50	–	–	–	–	26	30	28	46	–
O=S(=O)(NCCCCCCNCc1ccc(Br)cc1)c1c(Cl)cccc1Cl	–	14.7	–	–	–	–	–	–	–	–	–	–	–	–	–	–
O=S(=O)(NCCCNCc1ccccc1Cl)c1cc(C(F)(F)F)cc(C(F)(F)F)c1	15	11	8.8	9.3	11	13	20	–	–	–	–	11	10	15	13	–
COc1ccc(S(=O)(=O)NCCCCCCNCc2ccc(Br)cc2)cc1	–	13	–	–	–	–	–	–	–	–	–	–	–	–	–	–
O=S(=O)(NCCCCCCNCc1ccc(Br)cc1)c1cc(Cl)cc(Cl)c1	–	12	–	–	–	–	–	–	–	–	–	–	–	–	–	–
O=S(=O)(NCCCCCCNCc1ccc(Br)cc1)c1c(Cl)cc(C(F)(F)F)cc1Cl	–	5.67	–	–	–	–	–	–	–	–	–	–	–	–	–	–
O=S(=O)(NCCCCCCNCc1ccc(Br)cc1)c1ccc(Cl)cc1	–	5.9	–	–	–	–	–	–	–	–	–	–	–	–	–	–
O=S(=O)(NCCCNCc1ccc(Cl)c(C(F)(F)F)c1)c1cc(C(F)(F)F)cc(C(F)(F)F)c1	10	7.4	3.5	5.9	7.8	9.6	11	–	–	–	–	7.9	3	8.6	9.1	–
O=S(=O)(NCCCCCCNCc1ccc(Br)cc1)c1ccc2c(c1)OCC2	–	13	–	–	–	–	–	–	–	–	–	–	–	–	–	–
Cc1ccc(C)c(S(=O)(=O)NCCCCCCNCc2ccc(Br)cc2)c1	–	12	–	–	–	–	–	–	–	–	–	–	–	–	–	–
O=S(=O)(NCCCCCCNCc1ccc(Br)cc1)c1ccccc1Cl	–	13.7	–	–	–	–	–	–	–	–	–	–	–	–	–	–
CC(C)c1ccc(S(=O)(=O)NCCCCCCNCc2ccc(Br)cc2)cc1	–	5.73	–	–	–	–	–	–	–	–	–	–	–	–	–	–
O=[N+]([O-])c1ccccc1S(=O)(=O)NCCCCCCNCc1ccc(Br)cc1	–	11.7	–	–	–	–	–	–	–	–	–	–	–	–	–	–
CCCCc1ccc(S(=O)(=O)NCCCCCCNCc2ccc(Br)cc2)cc1	–	5.7	–	–	–	–	–	–	–	–	–	–	–	–	–	–
O=S(=O)(NCCCCCCNCc1ccc(Br)cc1)c1ccccc1F	–	13.3	–	–	–	–	–	–	–	–	–	–	–	–	–	–
CC(C)(C)c1ccc(CNCCNS(=O)(=O)c2cc(C(F)(F)F)cc(C(F)(F)F)c2)cc1	13	15	13	14	8.8	14	14	16	13	14	16	14	14	14	13	14
COc1ccc(CNCCNS(=O)(=O)c2cc(C(F)(F)F)cc(C(F)(F)F)c2)cc1OC	34	29	25	14	20	20	13	30	25	19	25	25	16	23	34	29
O=S(=O)(NCCNCc1cccc2ccccc12)c1cc(C(F)(F)F)cc(C(F)(F)F)c1	24	26	18	21	23	22	16	–	–	–	–	22	18	19	21	–
O=S(=O)(NCCCNCc1cccc(Cl)c1)c1cc(C(F)(F)F)cc(C(F)(F)F)c1	12	4.4	2.6	2.2	3.8	5.9	14	–	–	–	–	7	2.7	6.9	8	–
O=S(=O)(NCCCCCCNCc1ccc(Br)cc1)c1cccc(C(F)(F)F)c1	–	5.97	–	–	–	–	–	–	–	–	–	–	–	–	–	–
Cc1ccc(S(=O)(=O)NCCCCCCNCc2ccc(Br)cc2)cc1	–	12.3	–	–	–	–	–	–	–	–	–	–	–	–	–	–

Compounds with a lower GI50 (MIA PaCa-2), results first:

GI50 (PANC-1) [µM]	GI50 (MIA PaCa-2) [µM]	GI50 (MCF7) [µM]	GI50 (A2780) [µM]	GI50 (BXPC-3) [µM]	GI50 (ASPC1) [µM]	GI50 (HT-29) [µM]	GI50 (DU-145) [µM]	GI50 (U-87 MG) [µM]	GI50 (NCI-H460) [µM]	GI50 (A-431) [µM]	Structure (SMILES)	GI50 at 72 h [1] [µM]	GI50 (HPAC) [µM]	GI50 (BE(2)-C) [µM]	GI50 (Capan-2) [µM]	GI50 [2] [µM]
–	3.83	–	–	–	–	–	–	–	–	–	O=S(=O)(NCCCCCCNCc1ccc(Br)cc1)c1ccc(C(F)(F)F)cc1	–	–	–	–	–
10	3.4	2.4	1.6	1.7	3.8	10	–	–	–	–	COc1cccc(CNCCCNS(=O)(=O)c2cc(C(F)(F)F)cc(C(F)(F)F)c2)c1	6.6	2.4	4.5	6.4	–
12	3.1	2.6	1.5	1.7	4.6	12	–	–	–	–	COc1ccccc1CNCCCNS(=O)(=O)c1cc(C(F)(F)F)cc(C(F)(F)F)c1	5.5	2.4	3.6	6	–
–	2.97	–	–	–	–	–	–	–	–	–	O=S(=O)(NCCCCCCNCc1ccc(Br)cc1)c1cc(C(F)(F)F)cc(C(F)(F)F)c1	–	–	–	–	–
–	2.97	–	–	–	–	–	–	–	–	–	CC(C)(C)c1ccc(S(=O)(=O)NCCCCCCNCc2ccc(Br)cc2)cc1	–	–	–	–	–
18	2.8	1.9	3.8	13	6.4	2.7	4	3.4	2.4	7	COc1ccc(CNCCCNS(=O)(=O)c2cc(C(F)(F)F)cc(C(F)(F)F)c2)cc1OC	5.3	3.5	3.6	15	18
4.9	2.8	2.4	1.8	1.6	3	2.8	–	–	–	–	O=S(=O)(NCCCNCc1ccc(Cl)cc1)c1cc(C(F)(F)F)cc(C(F)(F)F)c1	2.3	2.8	2.9	2.7	–
2.7	2.8	1.4	3.1	2.7	21	2.6	–	–	–	–	O=S(=O)(NCCCNCc1cccc2ccccc12)c1cc(C(F)(F)F)cc(C(F)(F)F)c1	3.2	2.4	2.7	2.7	–
5.6	2.7	2.4	1.5	1.4	2.8	4.7	–	–	–	–	O=S(=O)(NCCCNCc1ccc(Cl)c(Cl)c1)c1cc(C(F)(F)F)cc(C(F)(F)F)c1	3	2.5	2.9	1.8	–
3.4	2.6	2.5	1.5	1.2	2.9	2.2	–	–	–	–	O=S(=O)(NCCCNCC1COc2ccccc2O1)c1cc(C(F)(F)F)cc(C(F)(F)F)c1 (stereo not drawn)	3.2	2.7	2.8	2.5	–
3.2	2.5	1.4	2.8	1.7	2	2.9	–	–	–	–	O=S(=O)(NCCCNCc1ccc(C(F)(F)F)cc1)c1cc(C(F)(F)F)cc(C(F)(F)F)c1	3.3	2.7	2.7	2	–
11	2.5	2.5	1.7	1.3	2.8	2.9	–	–	–	–	COc1ccc(CNCCCNS(=O)(=O)c2cc(C(F)(F)F)cc(C(F)(F)F)c2)cc1	3.1	3	2.8	2.4	–
2.2	2.3	1.9	2.6	1.5	2.8	2.2	2.6	2.1	2.5	2.5	O=S(=O)(NCCCNCc1ccc(Br)cc1)c1cc(C(F)(F)F)cc(C(F)(F)F)c1	3.1	2.9	2.7	2	2.4
2.2	2.1	1.5	2.1	1.7	2.9	1.6	–	–	–	–	O=S(=O)(NCCCCNCc1ccc(Br)cc1)c1cc(C(F)(F)F)cc(C(F)(F)F)c1	3.2	2	2.2	1.9	–
